Measured values published in patent US20140303185A1, “NOVEL POLYMORPHS OF VILAZODONE HYDROCHLORIDE” (ORCHID CHEMICALS & PHARMACEUTICALS LIMITED, priority 2013, published 2014).
Structures can show the parent of a compound that is named as a salt.

Assay: Storage stability of Vilazodone HCl polymorphic forms
Assay type: physicochemical
Conditions: for storage stability: at accelerated condition (tables 3 & 4)
[1] = Stability at 40 ± 2° C. & 75 ± 5% RH, Final
[2] = Stability at 40 ± 2° C. & 75 ± 5% RH, Final, hydrochloride
[3] = Stability at 40 ± 2° C. & 75 ± 5% RH, Initial, hydrochloride
[4] = Stability at 60 ± 2° C., Final, hydrochloride
[5] = Stability at 60 ± 2° C., Initial, hydrochloride

## N#Cc1ccc2[nH]cc(CCCCN3CCN(c4ccc5oc(C(N)=O)cc5c4)CC3)c2c1 [Form B, 1-[4-(5-cyanoindol-3-yl)butyl]-4-(2-carbamoylbenzofuran-5-yl) piperazine hydrochloride]
[1]
  Description: white to off
  Purity: 99.60%
[2]
  Moisture content: 1.91%
[3]
  Description: white to off
  Moisture content: 2.06%
  Purity: 99.62%
Stability at 60 ± 2° C., Final
  Description: white to off
[4]
  Moisture content: 0.81%
  Purity: 99.60%
[5]
  Description: white to off
  Moisture content: 2.06%
  Purity: 99.62%
  storage stability: good storage stability

## N#Cc1ccc2[nH]cc(CCCCN3CCN(c4ccc5oc(C(N)=O)cc5c4)CC3)c2c1 [Form A, 1-[4-(5-cyanoindol-3-yl)butyl]-4-(2-carbamoylbenzofuran-5-yl) piperazine hydrochloride]
[1]
  Description: white to off
  Purity: 99.60%
[2]
  Moisture content: 1.29%
[3]
  Moisture content: 1.10%
  Purity: 99.65%
Stability at 60 ± 2° C., Final
  Description: white to off
[4]
  Moisture content: 0.76%
  Purity: 99.65%
[5]
  Moisture content: 1.10%
  Purity: 99.65%
  storage stability: good storage stability
